Measurements as given in patent publication US12473294B2, “Selective modulators of mutant LRRK2 proteolysis and associated methods of use” (Arvinas Operations, Inc., priority 2020, dated 2025).

Experiments:
[1] = target: T1, G2019S LRRK2 (Homo sapiens, UniProt Q5S007, G2019S); assay: LRRK2 degradation HiBit assay, G2019S LRRK2 tagged with a HiBit tag expressed in HEK293 cells; format: cell-based; settings: 24 hours compound incubation; for Dmax: HEK293, HEK293 cells
T1 construct: expressed in transfected cells; host or cells: HEK293 (ATCC CRL-1573)
Description: (§1) The assay measures the degradation of wildtype and G2019S LRRK2 tagged with a HiBit tag on the C-terminus of the protein that was expressed from a mammalian expression vector, driven by the ubiquitin promoter in HEK293 cells. Each compound dose-response was repeated on three separate days, on three separate plates each day.
(§2) Plasmid Preparation. Transfection mixes were assembled as follows and incubated for 30 minutes at room temperature. In a 15 mL tube, 5.25 mL Opti-MEM (no additions) was mixed with 17 μL Firefly Luciferase plasmid at 1 μg/μL and 158 μL WT plasmid DNA at 1 μg/μL (175 μg total DNA) were mixed by flicking. In a new 15 mL tube, 5.25 mL OptiMEM was mixed with 17 μL Firefly Luciferase plasmid at 1 μg/μL and 158 μL G2019S plasmid DNA at 1 μg/μL (175 μg total DNA) were mixed by flicking. X-tremeGene HP was mixed thoroughly using a vortex. Next, 175 μL was added to each tube and flicked to mix. Both tubes were left to incubate for 30 minutes at room temperature.
While the transfection mixes were incubating, HEK293 cells acquired from ATCC (ATCC CRL-1573) were harvested with trypsin. Once cells are detached, the cells were resuspended in 12 mL OptiMEM+5% FBS and transferred to a 50 mL tube. The cells were mixed well and counted. Using OptiMEM+5% FBS, the cells were diluted in two 250 mL conical tubes at 0.71×10^6 cells/mL in 70 mL. One tube was labeled “WT” and the other “G2019S”. The WT and G2019S transfection mixes were added dropwise to the corresponding 250 mL tubes. The tubes were mixed first by pipetting then by swirling. The tubes were incubated at room temperature for at least 5 minutes.
(§3) Each tube was swirled before dispensing and after every three plates. Seventy microliters of cells were dispensed with WT or G2019S DNA to seven plates each. Three plates of each were tested with compound plate one (preparation described below) and three plates of each were tested with compound plate two (preparation described below). The first plate from each set served as a “prime” plate and was not used to test compounds. Each plate was incubated in the hood for 10 minutes before placing in the 37° C. incubator for 24 hours.
(§4) Preparation of Compound and Assay Plates. Two compound plates were made using 96 well polypropylene plates. Compounds were made up at 10 mM and were diluted to 1 mM in 30 μL. Each dose response curve included a well of DMSO, as a negative control and for normalization, and a well of 0.5 μM of Exemplary Compound 4 as a positive control. In addition to seven test compounds, each plate also included a dose response of Exemplary Compound 4. The compound plates were spun down along at 1200 rpm for 2 minutes.
(§5) The two compound plates were then mixed and 2 μL was diluted in intermediate plates having 248 μL of Opti-Mem in each well. Next, 10 μL diluted compounds from the intermediate plates were added to each test plate (three WT and three G2019S plates per compound plate for a total of 12 assay plates). The plates were incubated for 24 hours at 37° C.
(§6) All assay plates and all Nano-Glo Dual-Luciferase Reporter Assay System components (except for the DLR substrate) were equilibrated to room temperature. Next, the luciferase buffer was mixed with the lyophilized amber bottle until fully dissolved, and 75 μL of the luciferase mixture was added to each well of each assay plate. The assay plates were incubated for 10 minutes at room temperature with shaking for at least 5 minutes, and then read on a plate reader.
(§7) Developing Plates and Analyzing Data. One milliliter of DLR substrate and 1 mL LgBiT Protein were added to the Stop and Glo buffer, and 75 μL of the mixture was added to each well of each plate. Optically clear seals were added to each plate and each plate was incubated for 20 minutes with shaking for at least 10 minutes, and then read on a plate reader. […]

[2] = target: T2, wildtype LRRK2 (Homo sapiens, UniProt Q5S007); assay: LRRK2 degradation HiBit assay, wildtype LRRK2 tagged with a HiBit tag in HEK293 cells; format: cell-based; settings: 24 hours compound incubation; for Dmax: read-out: ** WT Dmax (%); for DC50: read-out: *WT DC50
T2 construct: endogenous in cells; host or cells: HEK293 with HiBit knocked in at the 3' end of the endogenous LRRK2 gene, stably expressing firefly luciferase
Description: as §1, with “repeated on two separate days,” for “repeated on three separate days,”
as §2
While the transfection mixes were incubating, HEK293 cells (acquired from ATCC; ATCC CRL-1573) were harvested with trypsin. Once cells are detached, the cells were resuspended in 12 mL OptiMEM+5% FBS and transferred to a 50 mL tube. The cells were mixed well and counted. Using OptiMEM+5% FBS, the cells were diluted in two 250 mL conical tubes at 0.71×10^6 cells/mL in 70 mL. One tube was labeled “WT” and the other “G2019S”. The WT and G2019S transfection mixes were added dropwise to the corresponding 250 mL tubes. The tubes were mixed first by pipetting then by swirling. The tubes were incubated at room temperature for at least 5 minutes.
as §3, §4, §5, §6, §7

T2 sequence (Q5S007 whole entry): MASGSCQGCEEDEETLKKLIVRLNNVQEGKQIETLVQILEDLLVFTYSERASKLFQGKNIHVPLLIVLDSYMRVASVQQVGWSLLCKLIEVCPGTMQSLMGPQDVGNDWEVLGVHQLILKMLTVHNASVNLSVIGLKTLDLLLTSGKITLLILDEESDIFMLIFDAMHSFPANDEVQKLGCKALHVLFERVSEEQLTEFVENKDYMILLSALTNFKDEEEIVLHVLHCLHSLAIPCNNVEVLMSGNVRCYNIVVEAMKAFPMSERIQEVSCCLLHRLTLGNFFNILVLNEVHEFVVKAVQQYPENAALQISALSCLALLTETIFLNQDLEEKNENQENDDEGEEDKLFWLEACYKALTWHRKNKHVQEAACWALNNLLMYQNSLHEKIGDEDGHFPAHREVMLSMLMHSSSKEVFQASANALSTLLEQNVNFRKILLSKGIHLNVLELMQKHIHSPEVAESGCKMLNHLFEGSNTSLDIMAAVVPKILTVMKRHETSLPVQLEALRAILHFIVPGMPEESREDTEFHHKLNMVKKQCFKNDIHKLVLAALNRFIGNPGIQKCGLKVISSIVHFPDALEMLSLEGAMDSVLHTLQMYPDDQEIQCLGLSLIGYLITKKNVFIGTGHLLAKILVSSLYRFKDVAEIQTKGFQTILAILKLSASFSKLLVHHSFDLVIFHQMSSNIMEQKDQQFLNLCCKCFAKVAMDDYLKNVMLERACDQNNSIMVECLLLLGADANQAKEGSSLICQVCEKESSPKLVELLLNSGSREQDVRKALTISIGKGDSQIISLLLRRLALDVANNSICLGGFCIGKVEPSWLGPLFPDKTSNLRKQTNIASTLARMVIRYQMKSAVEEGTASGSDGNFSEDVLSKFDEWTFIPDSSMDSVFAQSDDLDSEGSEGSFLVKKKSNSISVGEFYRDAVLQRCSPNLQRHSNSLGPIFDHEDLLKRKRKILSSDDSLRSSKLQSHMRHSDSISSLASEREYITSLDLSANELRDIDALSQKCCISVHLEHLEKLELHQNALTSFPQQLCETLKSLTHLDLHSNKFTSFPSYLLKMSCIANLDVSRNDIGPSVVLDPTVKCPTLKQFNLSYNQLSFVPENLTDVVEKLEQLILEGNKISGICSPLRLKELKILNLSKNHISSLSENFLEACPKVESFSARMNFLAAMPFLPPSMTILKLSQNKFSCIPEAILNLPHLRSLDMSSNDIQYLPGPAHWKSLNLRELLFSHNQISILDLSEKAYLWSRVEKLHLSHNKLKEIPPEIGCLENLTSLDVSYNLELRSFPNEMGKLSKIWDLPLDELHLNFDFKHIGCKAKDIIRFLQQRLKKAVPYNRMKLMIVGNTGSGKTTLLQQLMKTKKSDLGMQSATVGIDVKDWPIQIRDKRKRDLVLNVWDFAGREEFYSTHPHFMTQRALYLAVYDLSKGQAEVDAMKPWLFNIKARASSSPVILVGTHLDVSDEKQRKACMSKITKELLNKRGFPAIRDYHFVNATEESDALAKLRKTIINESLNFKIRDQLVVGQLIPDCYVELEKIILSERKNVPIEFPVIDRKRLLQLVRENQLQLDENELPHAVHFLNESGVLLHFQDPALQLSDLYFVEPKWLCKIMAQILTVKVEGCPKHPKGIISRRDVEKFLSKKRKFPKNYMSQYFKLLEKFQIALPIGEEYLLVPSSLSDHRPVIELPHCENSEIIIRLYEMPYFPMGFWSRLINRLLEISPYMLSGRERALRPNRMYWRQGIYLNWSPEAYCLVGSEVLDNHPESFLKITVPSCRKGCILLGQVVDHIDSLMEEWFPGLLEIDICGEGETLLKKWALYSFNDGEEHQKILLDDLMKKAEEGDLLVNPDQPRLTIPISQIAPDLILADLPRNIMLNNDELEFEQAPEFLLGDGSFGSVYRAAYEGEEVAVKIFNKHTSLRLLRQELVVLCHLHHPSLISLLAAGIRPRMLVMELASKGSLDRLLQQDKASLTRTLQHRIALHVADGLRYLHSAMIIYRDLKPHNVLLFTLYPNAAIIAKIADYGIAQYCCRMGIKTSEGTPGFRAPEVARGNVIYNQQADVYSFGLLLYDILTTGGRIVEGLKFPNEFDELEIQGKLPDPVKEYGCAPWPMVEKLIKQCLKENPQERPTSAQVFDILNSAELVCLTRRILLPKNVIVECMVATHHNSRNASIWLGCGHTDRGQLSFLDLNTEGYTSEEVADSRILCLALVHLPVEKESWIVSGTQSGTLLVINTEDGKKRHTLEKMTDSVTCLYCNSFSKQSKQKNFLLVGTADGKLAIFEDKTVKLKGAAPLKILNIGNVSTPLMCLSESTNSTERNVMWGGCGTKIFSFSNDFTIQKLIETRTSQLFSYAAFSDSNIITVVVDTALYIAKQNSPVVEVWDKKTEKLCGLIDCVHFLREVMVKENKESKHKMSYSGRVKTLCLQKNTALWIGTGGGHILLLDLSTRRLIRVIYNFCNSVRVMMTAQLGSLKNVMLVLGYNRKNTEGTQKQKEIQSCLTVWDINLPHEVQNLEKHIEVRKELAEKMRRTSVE
T1 sequence (Q5S007 whole entry G2019S): as the sequence (Q5S007 whole entry) above, with G2019S counted along it

**G2019S Dmax (%) ([1]; HEK293 cells) | DC50 ([1]; HEK293 cells) | Dmax [2] | DC50 [2] | Dmax [1] | Compound
A (A ≥ 70) | 10 to 50 nM | ≥ 70% | 50 to 100 nM |  | CC1=C(C(=O)Nc2ccc3[nH]nc(-c4ccnc(N5CCN(CCN6CCN(CC7CCN(c8ccc9c(c8)C(=O)N(C8CCC(=O)NC8=O)C9=O)CC7)CC6)CC5)c4)c3c2)[C@@H](C)n2nnnc2N1C (stereo partly drawn) [compound 25, (7R)-N-{3-[2-(4-{2-[4-({1-[2-(2,6-dioxopiperidin-3-yl)-1,3-dioxo-2,3-dihydro-1H-isoindol-5-yl]piperidin-4-yl}methyl)piperazin-1-yl]ethyl}piperazin-1-yl)pyridin-4-yl]-1H-indazol-5-yl}-4,5,7-trimethyl-4H,7H-[1,2,3,4]tetrazolo[1,5-a]pyrimidine-6-carboxamide]
 | ≥ 100 nM |  | ≥ 100 nM | ≥ 70% | CC1=C(C(=O)Nc2ccc3[nH]nc(-c4ccnc(N5CC6(CN(CC7CCN(c8ccc9c(c8)C(=O)N(C8CCC(=O)NC8=O)C9=O)CC7)C6)C5)c4)c3c2)[C@@H](C)n2nnnc2N1C (stereo partly drawn) [compound 26, (7R)-N-(3-{2-[6-({1-[2-(2,6-dioxopiperidin-3-yl)-1,3-dioxo-2,3-dihydro-1H-isoindol-5-yl]piperidin-4-yl}methyl)-2,6-diazaspiro[3.3]heptan-2-yl]pyridin-4-yl}-1H-indazol-5-yl)-4,5,7-trimethyl-4H,7H-[1,2,3,4]tetrazolo[1,5-a]pyrimidine-6-carboxamide]
 | ≥ 100 nM |  | ≥ 100 nM | 50 to 70% | CC1=C(C(=O)Nc2ccc3[nH]nc(-c4ccnc(N5CCN(CCN6CCC(CN7CCN(c8ccc9c(c8)C(=O)N(C8CCC(=O)NC8=O)C9=O)CC7)CC6)CC5)c4)c3c2)[C@H](C)n2nnnc2N1C (stereo partly drawn) [compound 27, (7S)-N-{3-[2-(4-{2-[4-({4-[2-(2,6-dioxopiperidin-3-yl)-1,3-dioxo-2,3-dihydro-1H-isoindol-5-yl]piperazin-1-yl}methyl)piperidin-1-yl]ethyl}piperazin-1-yl)pyridin-4-yl]-1H-indazol-5-yl}-4,5,7-trimethyl-4H,7H-[1,2,3,4]tetrazolo[1,5-a]pyrimidine-6-carboxamide]
 | ≥ 100 nM |  | ≥ 100 nM | 50 to 70% | CC1=C(C(=O)Nc2ccc3[nH]nc(-c4ccnc(N5CCN(CCN6CCN(CC7CCN(c8ccc9c(c8)C(=O)N(C8CCC(=O)NC8=O)C9=O)CC7)CC6)[C@@H](C)C5)c4)c3c2)[C@H](C)n2nnnc2N1C (stereo partly drawn) [compound 28, (7S)-N-(3-{2-[(3S)-4-{2-[4-({1-[2-(2,6-dioxopiperidin-3-yl)-1,3-dioxo-2,3-dihydro-1H-isoindol-5-yl]piperidin-4-yl}methyl)piperazin-1-yl]ethyl}-3-methylpiperazin-1-yl]pyridin-4-yl}-1H-indazol-5-yl)-4,5,7-trimethyl-4H,7H-[1,2,3,4]tetrazolo[1,5-a]pyrimidine-6-carboxamide]
 | 10 to 50 nM | < 50% | ≥ 100 nM | < 50% | CC1=C(C(=O)Nc2ccc3[nH]nc(-c4ccnc(N5CCN(CC6CCN(CC7CCN(c8ccc9c(c8)C(=O)N(C8CCC(=O)NC8=O)C9=O)CC7)CC6)CC5)c4)c3c2)C(C)(C)n2nnnc2N1C (stereo not shown) [compound 29, N-{3-[2-(4-{[1-({1-[2-(2,6-dioxopiperidin-3-yl)-1,3-dioxo-2,3-dihydro-1H-isoindol-5-yl]piperidin-4-yl}methyl)piperidin-4-yl]methyl}piperazin-1-yl)pyridin-4-yl]-1H-indazol-5-yl}-4,5,7,7-tetramethyl-4H,7H-[1,2,3,4]tetrazolo[1,5-a]pyrimidine-6-carboxamide]
 | 10 to 50 nM | < 50% | ≥ 100 nM | < 50% | CC1=C(C(=O)Nc2ccc3[nH]nc(-c4ccnc(N5CCN(CCN6CCN(CC7CCN(c8ccc9c(c8)C(=O)N(C8CCC(=O)NC8=O)C9=O)CC7)CC6)[C@@H](C)C5)c4)c3c2)C(C)(C)n2nnnc2N1C (stereo partly drawn) [compound 30, N-(3-{2-[(3S)-4-{2-[4-({1-[2-(2,6-dioxopiperidin-3-yl)-1,3-dioxo-2,3-dihydro-1H-isoindol-5-yl]piperidin-4-yl}methyl)piperazin-1-yl]ethyl}-3-methylpiperazin-1-yl]pyridin-4-yl}-1H-indazol-5-yl)-4,5,7,7-tetramethyl-4H,7H-[1,2,3,4]tetrazolo[1,5-a]pyrimidine-6-carboxamide]
 | ≥ 100 nM |  | ≥ 100 nM | < 50% | CC1=C(C(=O)Nc2ccc3[nH]nc(-c4ccnc(N5CCN(CCN6CCC(CN7CCN(c8ccc9c(c8)C(=O)N(C8CCC(=O)NC8=O)C9=O)CC7)CC6)[C@@H](C)C5)c4)c3c2)[C@H](C)n2nnnc2N1C (stereo partly drawn) [compound 31, (7S)-N-(3-{2-[(3S)-4-{2-[4-({4-[2-(2,6-dioxopiperidin-3-yl)-1,3-dioxo-2,3-dihydro-1H-isoindol-5-yl]piperazin-1-yl}methyl)piperidin-1-yl]ethyl}-3-methylpiperazin-1-yl]pyridin-4-yl}-1H-indazol-5-yl)-4,5,7-trimethyl-4H,7H-[1,2,3,4]tetrazolo[1,5-a]pyrimidine-6-carboxamide]
 | 10 to 50 nM |  | ≥ 100 nM | < 50% | CC1=C(C(=O)Nc2ccc3[nH]nc(-c4ccnc(N5CCO[C@@H](CN6CCN(CC7CCN(c8ccc9c(c8)C(=O)N(C8CCC(=O)NC8=O)C9=O)CC7)CC6)C5)c4)c3c2)C(C)(C)n2nnnc2N1C (stereo partly drawn) [compound 32, N-(3-{2-[(2S)-2-{[4-({1-[2-(2,6-dioxopiperidin-3-yl)-1,3-dioxo-2,3-dihydro-1H-isoindol-5-yl]piperidin-4-yl}methyl)piperazin-1-yl]methyl}morpholin-4-yl]pyridin-4-yl}-1H-indazol-5-yl)-4,5,7,7-tetramethyl-4H,7H-[1,2,3,4]tetrazolo[1,5-a]pyrimidine-6-carboxamide]
 | ≥ 100 nM | < 50% | ≥ 100 nM | < 50% | CC1=C(C(=O)Nc2ccc3[nH]nc(-c4ccnc(N5CCN(CCN6CCC(CN7CCN(c8ccc9c(c8)C(=O)N(C8CCC(=O)NC8=O)C9=O)CC7)CC6)CC5)c4)c3c2)C(C)(C)n2nnnc2N1C (stereo not shown) [compound 33, N-{3-[2-(4-{2-[4-({4-[2-(2,6-dioxopiperidin-3-yl)-1,3-dioxo-2,3-dihydro-1H-isoindol-5-yl]piperazin-1-yl}methyl)piperidin-1-yl]ethyl}piperazin-1-yl)pyridin-4-yl]-1H-indazol-5-yl}-4,5,7,7-tetramethyl-4H,7H-[1,2,3,4]tetrazolo[1,5-a]pyrimidine-6-carboxamide]
